# In ChEMBL document CHEMBL5370598, “[3H]UR-JG102-A Radiolabeled Cyclic Peptide with High Affinity and Excellent Selectivity for the Neuropeptide Y Y4 Receptor” (J Med Chem, 2023):
# Starred links: 1 amine or outer side, 2 acyl side, 3 side chain; linkers in the order of their positions; H or OH if unused. Positions of bridges follow the written chain, without caps; N, C: chain ends. Non-standard residues stand in square brackets, D forms with d. Residues, ends and D or L forms follow the SMILES beside them. *: point of attachment. Arg(Nω-CO) = N/C(=N\C(=O)[*:3])NCCC[C@H](N[*:1])C(=O)[*:2]; Ethylenediamine = C(CN[*:2])N[*:1]; Propionyl = CCC(=O)*
# Tests used:
# [1] = biological target: T1, Neuropeptide Y receptor type 4 (Homo sapiens, UniProt P50391); test: Displacement of [3H]UR-KK200 from human Y4R expressed in CHO cells co-expressing Gqi5-mtAEQ; format: cell-based
# T1 sequence (P50391 whole entry): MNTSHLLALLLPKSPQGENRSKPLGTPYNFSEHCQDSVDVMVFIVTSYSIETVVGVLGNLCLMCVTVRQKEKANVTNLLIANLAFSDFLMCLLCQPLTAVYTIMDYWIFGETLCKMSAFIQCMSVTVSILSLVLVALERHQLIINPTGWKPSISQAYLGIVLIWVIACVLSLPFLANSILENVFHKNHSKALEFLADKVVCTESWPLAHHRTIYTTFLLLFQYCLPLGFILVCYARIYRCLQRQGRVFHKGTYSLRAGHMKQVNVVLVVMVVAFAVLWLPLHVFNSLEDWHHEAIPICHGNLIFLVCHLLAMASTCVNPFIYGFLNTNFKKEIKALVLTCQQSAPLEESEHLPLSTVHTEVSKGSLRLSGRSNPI
# [2] = biological target: T1, Neuropeptide Y receptor type 4; test: Agonist activity at human Y4R expressed in CHO cells co-expressing Gqi5-mtAEQ by calcium2+ aequorin assay; format: functional, cell-based
# [3] = biological target: T2, Neuropeptide Y receptor type 1 (Homo sapiens, UniProt P25929); test: Displacement of [3H]UR-MK299 from human Y1R expressed in SK-N-MC cells; format: cell-based
# T2 sequence (P25929 whole entry): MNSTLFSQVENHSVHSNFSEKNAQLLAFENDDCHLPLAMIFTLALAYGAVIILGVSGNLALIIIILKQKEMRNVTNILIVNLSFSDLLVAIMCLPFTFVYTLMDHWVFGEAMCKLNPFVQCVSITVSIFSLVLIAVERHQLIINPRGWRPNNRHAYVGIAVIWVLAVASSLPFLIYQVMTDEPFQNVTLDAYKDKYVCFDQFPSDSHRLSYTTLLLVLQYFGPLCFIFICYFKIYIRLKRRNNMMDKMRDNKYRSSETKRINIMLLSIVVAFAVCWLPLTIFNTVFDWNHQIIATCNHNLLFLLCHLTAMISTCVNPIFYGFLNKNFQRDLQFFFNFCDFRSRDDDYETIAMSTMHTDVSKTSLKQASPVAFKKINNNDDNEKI
# [4] = biological target: T1, Neuropeptide Y receptor type 4; test: Agonist activity at human Y4R expressed in HEK293T cells by miniGsi assay relative to control; format: functional, cell-based; details: filed as agonist
# [5] = biological target: T1, Neuropeptide Y receptor type 4; test: Agonist activity at human Y4R expressed in CHO cells co-expressing Gqi5-mtAEQ by calcium2+ aequorin assay relative to control; format: functional, cell-based; details: filed as agonist
# [6] = biological target: T3, Neuropeptide Y receptor type 2 (Homo sapiens, UniProt P49146); test: Displacement of [3H]propionyl-pNPY from human Y2R expressed in CHO cells; format: cell-based
# T3 sequence (P49146 whole entry): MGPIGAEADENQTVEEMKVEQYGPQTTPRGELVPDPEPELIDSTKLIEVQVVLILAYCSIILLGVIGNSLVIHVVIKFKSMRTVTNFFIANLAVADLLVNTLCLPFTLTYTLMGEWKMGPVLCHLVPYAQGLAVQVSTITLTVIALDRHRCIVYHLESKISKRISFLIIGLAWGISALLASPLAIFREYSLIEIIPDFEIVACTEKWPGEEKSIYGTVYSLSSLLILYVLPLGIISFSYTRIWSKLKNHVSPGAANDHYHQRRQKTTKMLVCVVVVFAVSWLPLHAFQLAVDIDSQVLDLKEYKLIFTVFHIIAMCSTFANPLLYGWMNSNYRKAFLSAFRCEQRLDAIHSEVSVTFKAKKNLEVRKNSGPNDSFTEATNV
# [7] = biological target: T1, Neuropeptide Y receptor type 4; test: Agonist activity at human Y4R expressed in HEK293T cells by miniGsi assay; format: functional, cell-based
# [8] = biological target: T4, Neuropeptide Y receptor type 5 (Homo sapiens, UniProt Q15761); test: Displacement of [3H]propionyl-pNPY from human Y5R expressed in HEC-1B cells; format: cell-based, HEC-1B cell line
# T4 sequence (Q15761 whole entry): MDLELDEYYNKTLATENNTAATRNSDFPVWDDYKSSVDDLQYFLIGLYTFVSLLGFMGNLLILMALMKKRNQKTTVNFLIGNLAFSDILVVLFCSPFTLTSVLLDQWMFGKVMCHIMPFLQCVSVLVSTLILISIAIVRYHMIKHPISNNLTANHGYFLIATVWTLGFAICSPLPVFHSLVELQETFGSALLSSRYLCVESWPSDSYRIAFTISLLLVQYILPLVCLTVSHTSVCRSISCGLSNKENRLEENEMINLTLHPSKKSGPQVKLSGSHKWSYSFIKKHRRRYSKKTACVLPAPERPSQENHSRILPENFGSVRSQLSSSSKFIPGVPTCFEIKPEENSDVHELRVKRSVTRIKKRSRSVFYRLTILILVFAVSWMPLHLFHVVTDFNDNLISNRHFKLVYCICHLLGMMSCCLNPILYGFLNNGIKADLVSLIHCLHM
# [9] = biological target: T1, Neuropeptide Y receptor type 4; test: Agonist activity at human Y4R expressed in HEK293T cells incubated for 60 mins by cAMP CAMYEN assay relative to control; format: functional, cell-based; details: filed as agonist
# [10] = biological target: T1, Neuropeptide Y receptor type 4; test: Agonist activity at human Y4R expressed in HEK293T cells incubated for 60 mins by cAMP CAMYEN assay; format: functional, cell-based
# [11] = biological target: T1, Neuropeptide Y receptor type 4; test: (§1) Displacement of [3H]-(9S,12S,15S,19R,E)-4-amino-N-((S)-1-(((S)-1-(((S)-1-amino-3-(4-hydroxyphenyl)-1-oxopropan-2-yl)amino)-5-guanidino-1-oxopentan-2-yl)amino)-4-methyl-1-oxopentan-2-yl)-15-(3-guanidinopropyl)-12-(4-hydroxybenzyl)-2,11,14,17,20-pentaoxo-19-(4-(propanamido-2,3-t2)butanamido)-1,3,5,10,13,16,21-heptaazacyclopentacos-3-ene-9-carboxamide from human Y4R expressed in CHO cells coexpressing Gqi5-mtAEQ under isotonic sodium containing buffer condition; format: cell-based
# [12] = biological target: T1, Neuropeptide Y receptor type 4; test: as §1, with “hypotonic” for “isotonic”, “free” for “containing”; format: cell-based
Ki ([1]; read-out: Ki) [nM],EC50 ([2]; read-out: EC50) [nM],Ki ([3]; read-out: pKi (converted)) [nM],"Ki ([3]; sk-n-mc, read-out: Ki) [nM]",Emax [4] [%],Emax [5] [%],"Ki ([6]; cho, read-out: Ki) [nM]",Ki ([6]; read-out: pKi (converted)) [nM],EC50 [7] [nM],"Ki ([8]; hec-1b cell line, read-out: Ki) [nM]",Ki ([8]; read-out: pKi (converted)) [nM],Emax [9] [%],EC50 ([10]; read-out: EC50) [nM],EC50 ([2]; read-out: pEC50 (converted)) [nM],SMILES,also measured
0.041,8,> 1000,> 1000,56,79,> 10000,> 10000,1.1,> 1000,> 1000,–,–,–,CC(C)C[C@H](NC(=O)[C@@H]1CCCN/C(N)=N/C(=O)NCCCCNC(=O)[C@H](N)CC(=O)N[C@@H](CCCNC(=N)N)C(=O)N[C@@H](Cc2ccc(O)cc2)C(=O)N1)C(=O)N[C@@H](CCCNC(=N)N)C(=O)N[C@@H](Cc1ccc(O)cc1)C(N)=O,–
0.26,71,> 1000,> 1000,70,66,–,> 3160,19,> 1000,> 1000,86,0.41,–,CCC(=O)N[C@H]1CCC(=O)NCCNC(=O)/N=C(\N)NCCC[C@@H](C(=O)N[C@@H](CC(C)C)C(=O)N[C@@H](CCCNC(=N)N)C(=O)N[C@@H](Cc2ccc(O)cc2)C(N)=O)NC(=O)[C@H](Cc2ccc(O)cc2)NC(=O)[C@H](CCCNC(=N)N)NC1=O (Propionyl-ERY[Arg(Nω-CO)]LRY-NH2; linker 1-4 via Ethylenediamine),Ki ([6]; read-out: Ki): > 3000 nM
0.12,22,> 1000,> 1000,64,70,–,> 3160,2.6,> 1000,> 1000,81,0.11,–,CCC(=O)N[C@@H]1CC(=O)NCCCCNC(=O)/N=C(\N)NCCC[C@@H](C(=O)N[C@@H](CC(C)C)C(=O)N[C@@H](CCCNC(=N)N)C(=O)N[C@@H](Cc2ccc(O)cc2)C(N)=O)NC(=O)[C@H](Cc2ccc(O)cc2)NC(=O)[C@H](CCCNC(=N)N)NC1=O,Ki ([1]; read-out: pKi (converted)): 0.11 nM; Ki ([6]; read-out: Ki): > 3000 nM
0.17,60,> 1000,> 1000,67,65,> 10000,> 10000,10,> 1000,> 1000,–,–,–,CC(C)C[C@H](NC(=O)[C@@H]1CCCN/C(N)=N/C(=O)NCCNC(=O)CC[C@H](N)C(=O)N[C@@H](CCCNC(=N)N)C(=O)N[C@@H](Cc2ccc(O)cc2)C(=O)N1)C(=O)N[C@@H](CCCNC(=N)N)C(=O)N[C@@H](Cc1ccc(O)cc1)C(N)=O (H-ERY[Arg(Nω-CO)]LRY-NH2; linker 1-4 via Ethylenediamine),–
–,–,–,–,–,100,–,–,–,–,–,113,0.17,–,CC(C)C[C@H](NC(=O)[C@@H]1CCCNC(=N)NC(=O)NCCCCNC(=O)CCC(=O)N[C@@H](CCCNC(=N)N)C(=O)N[C@@H](Cc2ccc(O)cc2)C(=O)N1)C(=O)N[C@@H](CCCNC(=N)N)C(=O)N[C@@H](Cc1ccc(O)cc1)C(N)=O,Ki ([11]; read-out: Ki): 0.076 nM; Ki ([11]; read-out: pKi (converted)): 0.0741 nM; EC50 ([10]; read-out: pEC50 (converted)): 0.162 nM; Ki ([12]; read-out: Ki): 0.011 nM; Ki ([12]; read-out: pKi (converted)): 0.00912 nM
0.066,9,> 1000,> 1000,51,74,> 10000,> 10000,1.6,> 1000,> 1000,85,0.063,6.31,CCC(=O)N[C@@H]1CC(=O)N[C@@H](CCCNC(=N)N)C(=O)N[C@@H](Cc2ccc(O)cc2)C(=O)N[C@H](C(=O)N[C@@H](CC(C)C)C(=O)N[C@@H](CCCNC(=N)N)C(=O)N[C@@H](Cc2ccc(O)cc2)C(N)=O)CCCN/C(N)=N/C(=O)NCCCCNC1=O,EC50 ([10]; read-out: pEC50 (converted)): 0.0501 nM
0.031,11,> 1000,> 1000,68,63,> 10000,> 10000,0.89,> 1000,> 1000,–,–,–,CC(C)C[C@H](NC(=O)[C@@H]1CCCN/C(N)=N/C(=O)NCCCCNC(=O)C[C@@H](N)C(=O)N[C@@H](CCCNC(=N)N)C(=O)N[C@@H](Cc2ccc(O)cc2)C(=O)N1)C(=O)N[C@@H](CCCNC(=N)N)C(=O)N[C@@H](Cc1ccc(O)cc1)C(N)=O,–
0.093,18,> 1000,> 1000,62,69,–,912,2.5,> 1000,> 1000,–,–,–,CC(C)C[C@H](NC(=O)[C@@H]1CCCN/C(N)=N/C(=O)NCCCCNC(=O)[C@H](NC(=O)CCCN)CC(=O)N[C@@H](CCCNC(=N)N)C(=O)N[C@@H](Cc2ccc(O)cc2)C(=O)N1)C(=O)N[C@@H](CCCNC(=N)N)C(=O)N[C@@H](Cc1ccc(O)cc1)C(N)=O,Ki ([1]; read-out: pKi (converted)): 0.0912 nM; Ki ([6]; read-out: Ki): > 948 nM
0.11,23,> 1000,> 1000,46,64,> 10000,> 10000,8.1,> 1000,> 1000,83,0.2,20,CCC(=O)N[C@H]1CC(=O)NCCCCNC(=O)/N=C(\N)NCCC[C@@H](C(=O)N[C@@H](CC(C)C)C(=O)N[C@@H](CCCNC(=N)N)C(=O)N[C@@H](Cc2ccc(O)cc2)C(N)=O)NC(=O)[C@H](Cc2ccc(O)cc2)NC(=O)[C@H](CCCNC(=N)N)NC1=O,–
0.15,24,> 1000,> 1000,58,80,> 10000,> 10000,3.8,> 1000,> 1000,82,0.13,22.4,CCC(=O)N[C@H]1CC(=O)N[C@@H](CCCNC(=N)N)C(=O)N[C@@H](Cc2ccc(O)cc2)C(=O)N[C@H](C(=O)N[C@@H](CC(C)C)C(=O)N[C@@H](CCCNC(=N)N)C(=O)N[C@@H](Cc2ccc(O)cc2)C(N)=O)CCCN/C(N)=N/C(=O)NCCCCNC1=O,–
0.026,5,> 1000,> 1000,59,85,> 10000,> 10000,1.1,> 1000,> 1000,–,–,–,CC(C)C[C@H](NC(=O)[C@@H]1CCCN/C(N)=N/C(=O)NCCCCNC(=O)[C@@H](N)CC(=O)N[C@@H](CCCNC(=N)N)C(=O)N[C@@H](Cc2ccc(O)cc2)C(=O)N1)C(=O)N[C@@H](CCCNC(=N)N)C(=O)N[C@@H](Cc1ccc(O)cc1)C(N)=O,Ki ([1]; read-out: pKi (converted)): 0.0245 nM
0.33,19,> 3160,–,55,70,> 10000,> 10000,4.7,> 1000,> 1000,–,–,13.2,CC(C)C[C@H](NC(=O)[C@@H]1CCCN/C(N)=N/C(=O)NCCCCNC(=O)C[C@H](N)C(=O)N[C@@H](CCCNC(=N)N)C(=O)N[C@@H](Cc2ccc(O)cc2)C(=O)N1)C(=O)N[C@@H](CCCNC(=N)N)C(=O)N[C@@H](Cc1ccc(O)cc1)C(N)=O,Ki ([3]; read-out: Ki): > 3000 nM
